Results reported in patent publication US10023532B2, “Alkyl phenyl sulfide derivative and pest control agent” (KUMIAI CHEMICAL INDUSTRY CO., LTD., priority 2012, dated 2018).

Assays:
[1] = test system: Tetranychus urticae Koch (two spotted spider mite); test: Control effect test for Tetranychus urticae Koch (two spotted spider mite); assay type: in vivo; conditions: active ingredient concentration 4 ppm, soybean seedlings with 35 female adults immersed, 25° C., after 13 days, no replication; for pest or weed control at 4 ppm: Tetranychus urticae, 312 h
Experimental: A wettable powder prepared based on Formulation Example 2 was diluted with water into an active ingredient concentration of 4 ppm. In the solution were immersed soybean seedlings which had been inoculated with 35 female adults of two spotted spider mite. The soybean seedlings were dried in the air and placed in a thermostat of 25° C. After 13 days, the number of living female adults was examined and the control value of the active ingredient was determined using the calculation formula of the following Mathematical Expression 1. This test was conducted with no replication. Control value=100−[(number of living female adults after 13 days, in treated seedlings)/(number of living female adults after 13 days, in non-treated seedlings)]×100 [Mathematical Expression 1]
Tests similar to the above were conducted using, as comparative compounds, compound Nos. 22 and 23 described in JP-A-1975-29744, compound Nos. 3, 4, 5, 6 described in JP-A-1976-19121 and compound Nos. 18, 19 and 36 described in JP-A-1988-41451. The structures of these comparative compounds are as follows.

[2] = test system: Nilaparvata lugens Stál (brown rice planthopper); test: Insecticidal activity test for Nilaparvata lugens Stál (brown rice planthopper); assay type: in vivo; conditions: active ingredient concentration 100 ppm, sprouting unhulled rice immersed, 10 3-instar larvae, 25° C., after 6 days, no replication; for mortality at 100 ppm: Nilaparvata lugens, 144 h
Experimental: A wettable powder prepared based on Formulation Example 2 was diluted with water into an active ingredient concentration of 100 ppm. In the solution was immersed sprouting unhulled rice. They were placed in a 60-ml plastic cup. Thereinto were released 10 3-instar larvae of brown rice planthopper. The cup was covered with a lid and placed in a thermostat of 25° C. After 6 days, the number of living insects was counted and the mortality of insect was determined from the calculation formula of the following Mathematical Expression 2. This test was conducted with no replication. Mortality (%)=100−[(number of living insects after 6 days)/(number of tested insects)]×100 [Mathematical Expression 2]
As in the case of Test Example 1, tests similar to the above were conducted using, as comparative compounds, compound Nos. 22 and 23 described in JP-A-1975-29744, compound Nos. 4, 5, 6 described in JP-A-1976-19121 and compound Nos. 18, 19 and 36 described in JP-A-1988-41451.

| SMILES | control value [1] | mortality [2] | pest or weed control at 4 ppm [1] [%] | mortality at 100 ppm [2] [%] |
| --- | --- | --- | --- | --- |
| CCCSc1cc(OCCCSCc2ccccc2)ccc1C [compound 36] | no activity | no activity |  |  |
| CCCCCCOc1ccc(Cl)c([S+]([O-])CCC)c1 (stereo not shown) [compound 23] | no activity | no activity |  |  |
| [O-][S+](CC(F)(F)F)c1cc(OCCCCCCSC(F)(F)F)c(Cl)cc1Cl (stereo not shown) [A-0479, 6-trifluoromethylthiohexyl-[2,4-dichloro-5-(2,2,2-trifluoroethylsulfinyl)phenyl] ether] |  |  | ≥ 90 |  |
| CCCSc1cc(OCc2ccc(Cl)cc2)ccc1C [compound 18] | no activity | no activity |  |  |
| Cc1cc(F)c(OCCCCC(C)(C)C)cc1[S+]([O-])CC(F)(F)F (stereo not shown) [A-0086, 5,5-dimethylhexyl-[2-fluoro-4-methyl-5-(2,2,2-trifluoroethylsulfinyl)phenyl] ether] |  |  | ≥ 90 | ≥ 90 |
| Cc1cc(F)c(OCCCCC(C)(C)C)cc1SCC(F)(F)F [A-0085, 5,5-dimethylhexyl-[2-fluoro-4-methyl-5-(2,2,2-trifluoroethylthio)phenyl] ether] |  |  | ≥ 90 | ≥ 90 |
| Cc1ccc(OCCCCCSC(F)(F)F)cc1[S+]([O-])CC(F)(F)F (stereo not shown) [A-0439, 5-trifluoromethylthiopentyl-[4-methyl-3-(2,2,2-trifluoroethylsulfinyl)phenyl] ether] |  |  | ≥ 90 | ≥ 90 |
| CCC[S+]([O-])c1cc(OCC=CCl)ccc1C (stereo not shown) [compound 6] | no activity | no activity |  |  |
| C#CCOc1ccc(C)c([S+]([O-])CCC)c1 (stereo not shown) [compound 4] | no activity | no activity |  |  |
| Cc1ccc(OCCCCCSC(F)(F)F)cc1SCC(F)(F)F [A-0438, 5-trifluoromethylthiopentyl-[4-methyl-3-(2,2,2-trifluoroethylthio)phenyl] ether] |  |  | ≥ 90 | ≥ 90 |
| [O-][S+](CC(F)(F)F)c1cc(OCCc2ccc(C(F)(F)F)cc2)c(Cl)cc1Cl (stereo not shown) [A-0767, 2-(4-trifluoromethylphenyl)ethyl-[2,4-dichloro-5-(2,2,2-trifluoroethylsulfinyl)phenyl] ether] |  |  | ≥ 90 |  |
| Cc1cc(C)c([S+]([O-])CC(F)(F)F)cc1OCCc1ccc(OC(F)(F)F)cc1 (stereo not shown) [A-0783, 2-(4′-trifluoromethoxyphenyl)ethyl-[2,4-dimethyl-5-(2,2,2-trifluoroethylsulfinyl)phenyl] ether] |  |  | ≥ 90 |  |
| CCCSc1cc(OCC=CCl)ccc1C [compound 5] | no activity | no activity |  |  |
| Fc1cc(Cl)c(SCC(F)(F)F)cc1OCCCCCSC(F)(F)F [A-0433, 5-trifluoromethylthiopentyl-[4-chloro-2-fluoro-5-(2,2,2-trifluoroethylthio)phenyl] ether] |  |  |  | ≥ 90 |
| Cc1cc(F)c(O)cc1SCC(F)(F)F [C-0001, 2-fluoro-4-methyl-5-(2,2,2-trifluoroethylthio)phenol] |  |  |  | ≥ 90 |
| CCCCCCOc1ccc(Cl)c(SCCC)c1 [compound 22] | no activity | no activity |  |  |
| Cc1cc(C)c([S+]([O-])CC(F)(F)F)cc1OCCCCCCSC(F)(F)F (stereo not shown) [A-0481, 6-trifluoromethylthiohexyl-[2,4-dimethyl-5-(2,2,2-trifluoroethylsulfinyl)phenyl]ether] |  |  | ≥ 90 |  |
| [O-][S+](CC(F)(F)F)c1cc(OCCCCCSC(F)(F)F)c(F)cc1Cl (racemic) [A-0434, 5-trifluoromethylthiopentyl-[4-chloro-2-fluoro-5-(2,2,2-trifluoroethylsulfinyl)phenyl] ether] |  |  | ≥ 90 | ≥ 90 |
| FC(F)(F)CSc1cc(OCCCCCCSC(F)(F)F)c(Cl)cc1Cl [A-0478, 6-trifluoromethylthiohexyl-[2,4-dichloro-5-(2,2,2-trifluoroethylthio)phenyl] ether] |  |  | ≥ 90 |  |
| C#CCOc1ccc(C)c(SCCC)c1 [compound 3] | no activity |  |  |  |
| CCC[S+]([O-])c1cc(OCc2ccc(Cl)cc2)ccc1C (stereo not shown) [compound 19] | no activity | no activity |  |  |
